Results as given in patent publication US9566341B1, “Compounds including Cox inhibitor moiety and enhanced delivery of active drugs using same” (University of Kentucky Research Foundation, priority 2011, dated 2017).
“And” between values parts separate entries of the source, which are not always exact repeats. Equal entries are not always repeated. Structures can show the parent of a compound that is named as a salt.

How the values were obtained:
[1] = In vitro diffusion study across microneedle-treated full thickness Yucatan miniature pig skin; format: in vitro ADME; details: for flux enhancement of salt form over free base form: NTX flux, p<0.005; for flux of naltrexone from the hydrochloride salt form: donor in 0.3M acetate buffer pH 5.0, MN treated skin, n=4; for naltrexol flux: 10% PG containing saturated donor formulation
Protocol: For all in vitro experiments female Yucatan minipig skin (6 months old) were used. Skin sections were obtained by removing the subcutaneous fatty tissue by scalpel dissection, and were stored at −20° C. A PermeGear flow-through (In-Line, Riegelsville, Pa., USA) diffusion cell system was used for the skin permeation studies.
The skin was pierced 20 times with an array containing 5 MN (i.e., to make a total of 100 individual and non-over lapping piercings) before mounting the skin in the diffusion cell for the treatment group. The insertion of MN into skin was carried out manually by applying gentle finger pressure followed by instantaneous removal. MN's were distributed evenly within the 0.95 cm^2 area of skin and could easily be visualized after each 5 MN insertion, as to prevent reapplication in the same area. Single MN array of 5 were used simply out of ease for the experimental procedure. If any damage to an MN section was observed the section was replaced. […] Untreated skin samples were simply placed in the diffusion cells. Diffusion cells were kept at 32° C. using a circulating water bath. Data were collected using skin from a single pig 3-4 cells for the MN treated formulations.
The physiological receiver solution was water adjusted to pH 7.4 containing 20% ethanol, and the flow rate was adjusted to 1.5 ml/h. Each cell was charged with 0.25 ml of the donor in the donor compartment of the chamber. The diffusion cells were covered with a stopper to prevent evaporation. Samples were collected from the receiver compartment in six-hour increments over 48 h or for the length of the treatment. All samples were stored at 4° C. until analyzed by HPLC.
The in vitro permeation experiments were carried out to determine the transdermal flux of the parent drugs and the codrug, permeation coefficients as well as the concentration of the drug molecules in the skin at the end of the study. For all in vitro experiments Yucatan miniature pig (YP) skin was used. Full thickness skin was obtained by removing the subcutaneous fatty tissue by scalpel dissection, and stored at −20° C. A PermeGear flow-through (In-Line, Riegelsville, Pa., USA) diffusion cell system was used for the skin permeation studies. […] The skin was pierced 20 times with a 5 MN array (making 100 individual and non-over lapping piercings) before mounting the skin in the diffusion cell. MN pores were distributed evenly within the 0.95 cm^2 area of skin. Untreated skin samples were mounted directly onto the diffusion cells. The setup was maintained at 32° C. using a circulating water bath. Data collected using a minimum of 3-4 cells per treatment group. The receiver solution was water alkalified to pH 7.4 containing 20% ethanol at 37° C. Gentamycin sulfate (50 mg/L) was added to the receiver for 7 day studies as an antibacterial agent. The receiver flow rate was adjusted to 1.5 ml/h to maintain skin conditions. Each cell was charged with 0.25 ml of the donor and the diffusion cells were covered with a stopper to prevent evaporation of formulation. Samples were collected at regular increments over 48 hours or for the length of the treatment. Drug was concentrated 10 fold by evaporating 1 ml of the collected sample under nitrogen and reconstituting in 100 μl of ACN for quantification. All samples were stored at 4° C. until analyzed by HPLC. The skin was removed at the end of the study and the treatment area was diced into small pieces using a scalpel after removing all excess drugs from top of the skin. Drug was extracted out by immersing the skin pieces in ACN overnight in a shaker water bath at 32° C. Samples were injected into the HPLC after appropriate dilution for quantitative analysis. The donor was also removed and quantified at the end of the study by direct injection onto HPLC after suitable dilution using ACN. All data was analyzed using Fick's first law of diffusion. […]

[2] = Concentration of saturated donor solution; format: physicochemical; details: hydrochloride salt; 0.3M acetate buffer at pH 5.0
Protocol: Solubility studies are carried out by equilibrating large excesses of each drug with the solvent studied. The experiments will be done at skin surface temperature (32° C.). To hasten the attainment of equilibrium, each slurry will be continuously shaken or stirred. Samples will be taken, filtered with an appropriate filter for the solvent, measured with respect to volume, and either assayed directly by HPLC or evaporated to dryness and reconstituted for assay. Binding of the compounds to the filter will be checked to eliminate the possibility of drug adsorption on the filter and/or filter casing. All toxic solvents and other chemicals will be handled with caution, and fume hoods will be used when appropriate.
In vitro experiments. The goal of the first set of in vitro experiments was to estimate flux and skin concentration of the base form of the codrug.

[3] = test system: hairless guinea pig micropores; test: In vivo micropore visualization by gentian violet/India ink staining after MN treatment; details: for time the pores stay open after MN treatment: codrug gel under occlusion, patch changed at 3.5 days
Description: The patches were removed at predetermined time points and the site was cleaned with sterile gauze. Gentian violet/India ink was applied as the dyeing agent at the MN treated sites and allowed to dry before excess dye was removed with ethanol and gauze. Both the dyes stain the viable epidermis but not the intact SC. […] The donor was removed from the top of the skin at the end of the study and analyzed by direct injection onto HPLC after suitable dilution using ACN.
All animal experiments were approved by the University of Kentucky IACUC. A proof of concept in vivo experiment was carried out. 4% w/w gels were prepared with the hydrochloride salt form of the codrug. Gels were formulated by dissolving 4% codrug salt in PG: buffer at pH 5.0=10:90 and 3.0% hydroxyethylcellulose (HEC) polymer (required to have a gel formulation). Polymer was dissolved over a 30 minute period to obtain a homogenous gel. The solution was stirred until a viscous gel resulted and then left at room temperature for 1½ to 2 hours to remove bubbles and ensure complete polymerization. The gel was saturated with excess solid and therefore was cloudy. MN treated animals were first cleaned topically with isopropyl alcohol, and 50 MN array was applied twice mutually perpendicular to each other to give a total of 100 pores at each site. 0.3 mL gel doses were applied to the dorsal region of the HGP. After application of the gel the skin was occluded with the occlusive patch and biocclusive tape was applied to prevent evaporation of the formulation. The patch was changed with new formulation at 3.5 days such that more than 50% intact codrug was always present in formulation. […] The patches were removed to obtain data at successive 24 h time intervals.
The patches were removed at predetermined time points and the site was cleaned with sterile gauze. Gentian violet/India ink was applied as the dyeing agent at the MN treated sites and allowed to dry before excess dye was removed with ethanol and gauze. Both the dyes stain the viable epidermis but not the intact SC.

[4] = Pharmacokinetic study with codrug HCl salt gel patches after MN treatment; format: in vivo, hairless guinea pig
Protocol: Microneedle treatment at each patch site contained 100 micropores created by a 1 cm^2 50 needle stainless steel array rotated 90° and inserted twice. […] Plasma samples were obtained from a jugular catheter over seven days and analyzed for drug concentration by LC/MS (Methods).
(§1) Hairless IAF guinea pigs (Charles River) weighing 350-650 g were used for these studies. All animal studies were in accordance with the institutional guidelines and approved by the University of Kentucky IACUC. Surgical procedure was performed to canulate the jugular vein. Blood samples (0.3 mL) were drawn from the jugular vein at regular time intervals for the time studied. MN treated animals were first cleaned topically with isopropyl alcohol, and two 50 MN arrays were then manually applied to each dose site. For MN treated GPs, four 0.3 mL gel doses were applied to the dorsal region of the hairless guinea pigs at 4 sites to obtain steady state plasma levels. […] The blood samples were immediately centrifuged at 10,000×g for 3 min; plasma was separated and stored at −70° C. until analysis.
as §1, with “70 g C” for “−70° C.”

[5] = Micromedex 1.0, as fraction; cited from earlier work
[6] = Chemical stability in 0.3M acetate buffer pH 5.0 at 32° C.; format: physicochemical
Description: The chemical stability of the prodrugs to hydrolysis and solvolysis at the appropriate temperatures will be determined by measuring concentrations over time in the buffers and solvents used in the solubility and diffusion studies. Chemical degradation rate constants will be important in distinguishing enzymatic degradation from non-enzymatic degradation. Codrug enzymatic metabolism rate constants can also be determined in skin homogenates, to ascertain if the values are useful in the QSPR multiple regression analysis. The kinetics of codrug enzymatic degradation in skin homogenates will be done using abdominal plastic surgery samples. Enzymatic reaction rates will be determined at several different codrug concentrations. The skin is homogenized (Polytron tissue homogenizer and ground glass homogenizer fitted with a glass pestle) in HEPES-buffered Hanks' balanced salt solution and the supernatant is obtained. The enzymatic hydrolysis rates are determined in the homogenate at 37° C. The codrug and its metabolites will be obtained by solid-phase extraction, or another appropriate extraction method. Naltrexone and any other metabolite formed will be assayed by HPLC and expressed as moles of metabolite per minute per milligram of protein. Protein concentrations in the supernatant will be measured by the Bradford method. Controls containing only codrug and HEPES-buffered Hanks' balanced salt solution at 37° C. will also be monitored to determine non-enzymatic hydrolysis.
Chemical and enzymatic stability was determined for the codrugs. For chemical stability studies, the codrug was put in prewarmed 0.3M acetate buffer pH 5.0 after solubilization in <5% ACN, if required, at 32° C. in an incubator. Samples were withdrawn at regular intervals and injected into the HPLC after appropriate dilutions. Enzymatic stability studies are important for estimation of conversion of codrugs in the plasma. […] All stability data was analyzed using pseudo first order kinetics. […]

[7] = listed as Compound 2U hydrochloride salt

For `Cl.O=C(Cc1ccccc1Nc1c(Cl)cccc1Cl)Oc1ccc2c3c1O[C@H]1C(=O)CC[C@@]4(O)[C@@H](C2)N(CC2CC2)CC[C@]314` [codrug salt], the “flux enhancement of salt form over free base form” value [1] was 13 fold, the “flux enhancement of salt form over free base form” value [1, 7] was “about 13 fold” and the “flux of naltrexone from the hydrochloride salt form” value [1] was 5.42±1.5 nmol/(cm^2/h) and 5.5 nmol/(cm^2/h). For the same compound, the “flux of naltrexone from the hydrochloride salt form” value [1, 7] was 5.42±1.5 nmol/(cm^2/h), the “flux at higher concentrations of PG” value ([1]; salt form, 25% and 50% PG, saturated donor) was “flux decreased significantly” and the “flux of 10% PG containing formulation versus aqueous formulation” value ([1]; salt form, saturated donor, one way ANOVA) was “no significant difference in flux”. For the same compound, the “concentration of donor solution” value [2] was 39300 µg/mL, the “time the pores stay open after MN treatment” value [3, 7] was no more than 7 days and the “time the pores stay open after MN treatment” value ([3]; listed as HCl salt form of the compound) was no more than 7 days. The “Css estimated from Jss*A=Css*Cl” value ([4]; 4 patches, 400 MN treatments) was “around 1 ng/ml”, the “intact codrug in plasma samples” value ([4]; LC/MS, over seven days) was “not detected” and the “micropore staining with India ink” value ([4]; days 1, 4, 5, 6, and 7) was “Significant micropore staining”. For the same compound, the “time at which pores closed” value ([4]; one guinea pig of four) was 6 days, the “flux of NTX from the codrug in hairless guinea pig model” value ([4]; salt form, 10% PG formulation) was “not high enough to quantify” and the “duration of significant NTX plasma levels” value ([4]; three out of the four guinea pigs, four patches, single MN pretreatment) was 7 days.

For `O=C(O)Cc1ccccc1Nc1c(Cl)cccc1Cl` [diclofenac, Diclofenac], the oral bioavailability [5] is listed as 0.55.

In the case of `O=C1CC[C@@]2(O)[C@H]3Cc4ccc(O)c5c4[C@@]2(CCN3CC2CC2)[C@H]1O5` [NTX HCl, Naltrexone Hydrochloride, reference compound], the “pore visualization at day 4 (96 h)” value ([3]; MN followed by NTX HCl gel under occlusion) was “cannot be visualized”.

Compound `Oc1ccc2c3c1O[C@H]1[C@H](O)CC[C@@]4(O)[C@@H](C2)N(CC2CC2)CC[C@]314` [NTXOL, 6-β-Naltrexol, reference compound] has a naltrexol flux [1] of 3.07±0.27 nmol/cm^2/h.

`O=C(Cc1ccccc1Nc1c(Cl)cccc1Cl)O[C@@H]1CC[C@@]2(O)[C@H]3Cc4ccc(O)c5c4[C@@]2(CCN3CC2CC2)C1O5` (stereo partly drawn) [Compound 2B] gave a half-life ([6]; buffer pH 5.0, 32° C.) of roughly 56.3 days.

With `O=C(Cc1ccccc1Nc1c(Cl)cccc1Cl)OC1CCC2(O)C3Cc4ccc(O)c5c4C2(CCN3CC2CC2)C1O5` (stereo not drawn) [Compound 2B] the “Chemical stability” value [6] was 56.3 ± 9.5 days and the naltrexol flux [1] was “approximately 0.29±0.09 nmol/cm^2/h”.
